According to patent publication US20130202698A1 (NANJING SANHOME PHARMACEUTICAL CO., LTD., priority 2005, published 2013):
Where two headings read alike, the source gives them in different places. Marks after values point to notes of the source that are not given here.

Assays:
righting reflex = assay: Hypnotic effect, loss of righting reflex; assay type: in vivo, mice; conditions: mouse, in vivo
Procedure: Thirty minutes after drug administration, the number of animals losing righting reflex (LORR) was recorded. […] Sodium pentobarbital was used at […] as the positive control.

Purkinje cells = conditions: dog, in vivo, 200 mg/kg
Procedure: Male and female Beagle dogs were kept in laboratory conditions for 1 week to observe general health conditions. […] Animals were treated at dose of I.V. 200 mg/kg for ornidazole enantiomers, or 10 mL/kg for vehicle control for 2 weeks, then sacrificed for anatomical and pathological examinations.
Quantitative data were analyzed by group test and qualitative data by simplified direct probability method. A 10×10 area under low magnification was used to count cerebellar Purkinje cells.

Beagle dogs = conditions: dog, in vivo, iv, 200 mg/kg
Procedure: In the studies, male and female Beagle dogs were treated at high doses of ornidazole enantiomers for 2 weeks, and then sacrificed for anatomical and pathological examinations. […] All the doses were administered in the levo- and racemate groups.

[1] = system: motor balance and coordination; conditions: both, mouse, in vivo
Procedure: Motor balance and coordination were tested using a modified beam walking method. Mice were put on a smooth beam tilted at an angle of 70 degree. Mice passed the test by standing on the beam for 0.5 minute without falling off. All the mice were pre-screened before the studies, and a total of 110 mice were selected by passing the beam test in 3 consecutive tries. The selected mice were divided into 11 groups with 10 mice in each group (half male and half female). At certain time points after drug administration, mice were tested on the beam for 3 consecutive times. A mouse was counted as failing to the test if it fell off the beam for 2 or more times.
The dose volume was 0.2 mL/10 gram and infusion rate was 0.2 mL/10 seconds. Chlorpromazine was used as the positive control.

[2] = system: Remefline-induced convulsion; assay: Anticonvulsant effects on Remefline-induced convulsion in mice; assay type: in vivo
Procedure: In one experiment, the anticonvulsant effects of levo- and dextro-ornidazole against drug-induced convulsions in mice were compared. In four different animal convulsion models, mice were treated by four different seizure-inducing agents, including Remefline, Strychnine, isoniazid, thiosemicarbazide. Levo- or dextro-ornidazole was administered along with the seizure-inducing agents, and several outcomes were measured, including rate of convulsion, mortality rate, time to convulsion (latency), and time to death. Diazepam was used as a positive anticonvulsant control.
(§1) Mice are randomized into 4 treatment groups (n=10 with half male and half female): dextro- or levo-ornidazole (dosage 40, 80, 160 mg/kg), vehicle control group (15% propylene glycol in 0.9% sodium chloride, 20 mL/kg) and the positive control group. Animals are treated with known convulsion-inducing agents, followed by the drug or vehicle control given intravenously. The dose volume is 20 mL/kg with an infusion rate of 0.2 mL/10 seconds.

trichomonas vaginalis = assay: Pharmacodynamic study of trichomonas vaginalis infection in mice; assay type: in vivo; set-up: ED90: unit not given beside the values; conditions: male ICR mice infected intraperitoneally, drug i.v. at 2, 24, 48, 72 hours; for ED50: Trichomonas vaginalis, dosage of 50% inhibition rate, read-out: ED50; for ED90: dosage of 90% inhibition rate
Procedure: Male ICR mice were injected intraperitoneally with liquid containing 0.4 ml 3×10^6 trichomonas vaginalis (trichomonas vaginalis from clinical patients). The mice were randomly divided into 19 groups, each with 10. The mice in solvent control group were given blank solutions by tail vein injection. The treatment groups were injected intravenously at 2, 24, 48, and 72 hours after infection with active drugs. The animals were killed five days after infection. Washing offal, fluid was centrifuged, and microscopically examined for life larvae. Autopsy was performed to determine whether there was any visceral and abdominal abscess, microscopic examination was conducted to determine the number of live trichomoniasis in the abscess. […] The abscess formation was inhibited in the treatment groups[…] and the number of live trichomoniasis was reduced. Calculate the dosage of 50% (ED50) and 90% (ED90) inhibition rate.

[3] = system: isoniazid-induced convulsion; assay: Anticonvulsant effects on isoniazid-induced convulsion in mice; assay type: in vivo; conditions: Mean ± SD, n=10
Procedure: as §1, with “seconds. The anticonvulsant effects are observed and recorded (see Tables 2-6).” for “seconds.”

amoeba dysentery = assay: Pharmacodynamic study of cecum amoeba infection in mice; assay type: in vivo; conditions: male ICR mice infected in the cecum, drug i.v. at 24, 48, 72 hours; for ED50: Mus musculus, iv, dosage of 50% inhibition rate; for ED90: dosage of 90% inhibition rate
Procedure: Male ICR mice were injected with liquid containing about 200,000 units of amoeba dysentery in the cecum. The mice were randomly divided into 19 groups, each with 10. The mice in solvent control group were given blank solutions by tail vein injection. The treatment groups were injected intravenously at 24, 48, 72 hours after infection with active drugs. The animals were killed six days after infection. Intestinal mucosal biopsies were done, and comparative studies of different stages of the amoeba were studied under microscope. […] Calculated the dosage of 50% (ED50) and 90% (ED90) inhibition rate.

[4] = Phase II clinical trial, intravenous, adverse events; assay type: in vivo, human; conditions: human, in vivo, iv
Procedure: A double-blinded randomized controlled trial was carried out to compare the adverse events between the I.V. levo-ornidazole and racemate treatment groups. […] The high rate of adverse events observed from the treatment by the racemic drug caused patient treatment non-compliant, which could be dangerous for life-threatening infections.

Structure (SMILES): Cc1ncc([N+](=O)[O-])n1C[C@@H](O)CCl [D-ornidazole, R-(+)-ornidazole]
- Number of animals Loss of Righting Flex 30 min Post-dose (righting reflex; both, 40 mg/kg, 30 min): 0
- Number of animals Loss of Righting Flex 30 min Post-dose (righting reflex; both, 80 mg/kg, 30 min): 0
- Purkinje cell morphology (Purkinje cells): Purkinje cell denaturing and morphology change
- Toxicity Severity (Beagle dogs): Severe
- Number of Animals Fall Off ([1]; 40 mg/kg, 0.5 h): 0
- Number of Animals Fall Off ([1]; 40 mg/kg, 1 h): 1
- Number of Animals Fall Off ([1]; 40 mg/kg, 2 h): 2
- Number of Animals Fall Off ([1]; 40 mg/kg, 3 h): 3
- Number of Animals Fall Off ([1]; 40 mg/kg, 4 h): 0
- Number of Animals Fall Off ([1]; 80 mg/kg, 0.5 h): 3
- Number of Animals Fall Off ([1]; 80 mg/kg, 1 h): 3
- Number of Animals Fall Off ([1]; 80 mg/kg, 2 h): 2
- Number of Animals Fall Off ([1]; 80 mg/kg, 3 h): 1
- Number of Animals Fall Off ([1]; 80 mg/kg, 4 h): 0
- Number of Animals Fall Off ([1]; 160 mg/kg, 0.5 h): 10##
- Number of Animals Fall Off ([1]; 160 mg/kg, 1 h): 10##
- Number of Animals Fall Off ([1]; 160 mg/kg, 2 h): 10##
- Number of Animals Fall Off ([1]; 160 mg/kg, 3 h): 10##
- Number of Animals Fall Off ([1]; 160 mg/kg, 4 h): 9##
- Mortality Rate ([2]; 40 mg/kg i.v., n=10): 10/10
- Rate of Convulsion ([2]; 40 mg/kg i.v., n=10): 10/10
- Rate of Convulsion ([2]; 80 mg/kg i.v., n=10): 5/10*
- Mortality Rate ([2]; 80 mg/kg i.v., n=10, listed as Dextro-ornidazole, 80 mg/kg): 0/10**
- Mortality Rate ([2]; 80 mg/kg i.v., n=10, listed as dextro-ornidazole, 80 mg/kg): 0/10
- Mortality Rate ([2]; 160 mg/kg i.v., n=10): 0/10**
- Rate of Convulsion ([2]; 160 mg/kg i.v., n=10): 0/10**
- ED50 (trichomonas vaginalis): 14.1 mg/kg
- ED90 (trichomonas vaginalis): 54.5
- Convulsion Latency ([3]; 40 mg/kg i.v.): 43.2 ± 5.4 min
- Time to Death ([3]; 40 mg/kg i.v.): 53.6 ± 7.2 min
- Convulsion Latency ([3]; 80 mg/kg i.v.): 46.1 ± 2.2 min
- Time to Death ([3]; 80 mg/kg i.v.): 57.0 ± 7.3 min
- Convulsion Latency ([3]; 160 mg/kg i.v.): 48.3 ± 14.1 min
- Time to Death ([3]; 160 mg/kg i.v.): 81.5 ± 15.8 min
- ED50 (amoeba dysentery): 13.3 mg/kg
- ED90 (amoeba dysentery): 64.4

Structure (SMILES): Cc1ncc([N+](=O)[O-])n1C[C@H](O)CCl [L-ornidazole, S-(−)-ornidazole]
- Number of animals Loss of Righting Flex 30 min Post-dose (righting reflex; both, 40 mg/kg, 30 min): 0
- Number of animals Loss of Righting Flex 30 min Post-dose (righting reflex; both, 80 mg/kg, 30 min): 0
- Number of animals Loss of Righting Flex 30 min Post-dose (righting reflex; both, 160 mg/kg, 30 min): 0
- Number of animals Loss of Righting Flex 30 min Post-dose (righting reflex; 160 mg/kg): none
- Purkinje cell morphology (Purkinje cells): did not cause significant change
- Adverse events reported (total) [4]: 3
- Appetite drop, # of Patients with AE [4]: 1
- Appetite drop, Incidence (%) [4]: 0.74%
- Dizziness, # of Patients with AE [4]: 0
- Dizziness, Incidence (%) [4]: 0.00%
- Dry mouth, # of Patients with AE [4]: 0
- Dry mouth, Incidence (%) [4]: 0.00%
- Headache, # of Patients with AE [4]: 0
- Headache, Incidence (%) [4]: 0.00%
- Hypersomnia, # of Patients with AE [4]: 0
- Hypersomnia, Incidence (%) [4]: 0.00%
- Hypodynamia, # of Patients with AE [4]: 0
- Hypodynamia, Incidence (%) [4]: 0.00%
- Nausea, # of Patients with AE [4]: 0
- Nausea, Incidence (%) [4]: 0.00%
- Patients with adverse events (total) [4]: 2 patients
- Stomach discomfort, # of Patients with AE [4]: 0
- Stomach discomfort, Incidence (%) [4]: 0.00%
- Total incidence rate of adverse events [4]: 1.47%
- Vertigo, # of Patients with AE [4]: 0
- Vertigo, Incidence (%) [4]: 0.00%
- Vomiting, # of Patients with AE [4]: 0
- Vomiting, Incidence (%) [4]: 0.00%
- WBC decline, # of Patients with AE [4]: 2
- WBC decline, Incidence (%) [4]: 1.47%
- Toxicity Severity (Beagle dogs): Mild
- Number of Animals Fall Off ([1]; 40 mg/kg, 0.5 h): 0
- Number of Animals Fall Off ([1]; 40 mg/kg, 1 h): 1
- Number of Animals Fall Off ([1]; 40 mg/kg, 2 h): 0
- Number of Animals Fall Off ([1]; 40 mg/kg, 3 h): 0
- Number of Animals Fall Off ([1]; 40 mg/kg, 4 h): 0
- Number of Animals Fall Off ([1]; 80 mg/kg, 0.5 h): 0
- Number of Animals Fall Off ([1]; 80 mg/kg, 1 h): 0
- Number of Animals Fall Off ([1]; 80 mg/kg, 2 h): 0
- Number of Animals Fall Off ([1]; 80 mg/kg, 3 h): 1
- Number of Animals Fall Off ([1]; 80 mg/kg, 4 h): 1
- Number of Animals Fall Off ([1]; 160 mg/kg, 0.5 h): 0
- Number of Animals Fall Off ([1]; 160 mg/kg, 1 h): 0
- Number of Animals Fall Off ([1]; 160 mg/kg, 2 h): 3
- Number of Animals Fall Off ([1]; 160 mg/kg, 3 h): 2
- Number of Animals Fall Off ([1]; 160 mg/kg, 4 h): 1
- Mortality Rate ([2]; 40 mg/kg i.v., n=10): 10/10
- Rate of Convulsion ([2]; 40 mg/kg i.v., n=10): 10/10
- Rate of Convulsion ([2]; 80 mg/kg i.v., n=10): 10/10^#
- Mortality Rate ([2]; 80 mg/kg i.v., n=10, listed as Levo-ornidazole, 80 mg/kg): 10/10^##
- Mortality Rate ([2]; 80 mg/kg i.v., n=10, listed as levo-ornidazole, 80 mg/kg): 10/10
- Mortality Rate ([2]; 160 mg/kg i.v., n=10): 1/10**
- Rate of Convulsion ([2]; 160 mg/kg i.v., n=10): 9/10^##
- ED50 (trichomonas vaginalis): 9.1 mg/kg
- ED90 (trichomonas vaginalis): 32.6
- Convulsion Latency ([3]; 40 mg/kg i.v.): 37.1 ± 5.8 min
- Time to Death ([3]; 40 mg/kg i.v.): 47.6 ± 5.6 min
- Convulsion Latency ([3]; 80 mg/kg i.v.): 38.3 ± 6.3 min
- Time to Death ([3]; 80 mg/kg i.v.): 48.3 ± 9.6 min
- Convulsion Latency ([3]; 160 mg/kg i.v.): 45.0 ± 7.8 min
- Time to Death ([3]; 160 mg/kg i.v.): 75.2 ± 19.0 min
- ED50 (amoeba dysentery): 10.5 mg/kg
- ED90 (amoeba dysentery): 41.2
